The subject of series [1] is B. pumilus ATCC 27142 spores. As to the kind of experiment: Log reduction of B. pumilus spores on spore strips treated with high-pressure/supercritical CO2 with or without additives, colony counting. It is filed as cell-based.
In series [2] the test system is B. anthracis ΔSterne-1 spores.
The test system of series [3] is B. atrophaeus ATCC 9372 spores.
Series [4] relates to G. stearothermophilus spores. As to conditions: cited from earlier work.
Series [5] has as its system Vegetative G. stearothermophilus cells. The settings on record: 1.5-hour exposure, 28 bar, 25 °C; cited from earlier work.
A further series relates to Lactobacillus plantarum. As to conditions: high-pressure CO2 treatment, suspension in distilled water at pH 6.0; cited from earlier work.
The mark [6] stands for this setting: additive with CO2, conditions of Table 2.
[7] abbreviates: additive with CO2, 40 °C, 276 bar, 4 hr.

Several values for one entry are separate records, joined by “and”; a condition that tells them apart may be missing. Equal entries are not always repeated. Entries after “also recorded” stand apart in the source; their conditions may differ. Where two headings read alike, the source gives them in different places.

Turning to `CC(C)O` [70% ISOPROPANOL, isopropanol], the “effectiveness of additive in deactivating B. pumilus spores (in words)” value in series [1] (setting [6]) is “Neither bulk water, 5 μL of 70% ethanol, nor 5 μL of 70% isopropanol resulted in the required log reduction”. The “LOG REDUCTION” value in series [1] (setting [7]) worked out at 0.17 ± 0.06 log. In series [1] (dense-phase CO2, at 40 °C), the “effectiveness of additive (in words)” value was “neither bulk water, nor ethanol, nor isopropanol were effective additives”.
In the case of `OO` [30% H2O2, hydrogen peroxide], in series [1], the “LOG REDUCTION” value was 4.47 ± 0.64 log and 4.60 ± 0.02 log and 6.28 ± 0.46 log and 4.45 ± 0.31 log; the “deactivation in replicate experiments (in words)” value was “complete deactivation in two of the three replicate experiments”; the “effectiveness of additive in deactivating B. pumilus spores (in words)” value is given as “highly effective; also recorded: the most effective additive among the additives examined”. Moreover, in series [2], the Log reduction was determined as 5.74. Further, the Log reduction in series [3] is listed as 6.25.
For the molecule `CCO` [70% ETHANOL, ethanol], the “effectiveness of additive in deactivating B. pumilus spores (in words)” value in series [1] (setting [6]) was “Neither bulk water, 5 μL of 70% ethanol, nor 5 μL of 70% isopropanol resulted in the required log reduction”. In series [1] (setting [7]), the “LOG REDUCTION” value was determined as 0.27 ± 0.16 log. Moreover, the “effectiveness of additive (in words)” value in series [1] (dense-phase CO2, at 40 °C) is given as “neither bulk water, nor ethanol, nor isopropanol were effective additives”.
For the molecule `O=C=O` [CO2, carbon dioxide], the log reduction in series [1] is listed as 3.90 log; in the series with Lactobacillus plantarum it was “more than 7 log”. Also, the “LOG REDUCTION” value is listed as 1.91 ± 0.23 log in series [1] (wetted spore strips with CO2, 4 hr, 103 bar, 60 °C); 0.58 ± 0.04 log in series [1] (wetted spore strips with CO2, 4 hr, 276 bar, 50 °C); 3.06 ± 0.17 log in series [1] (wetted spore strips with CO2, 4 hr, 276 bar, 60 °C); 3.02 ± 0.07 log in series [1] (wetted spore strips with CO2, 4 hr, 276 bar, 80 °C). For the same molecule, the spores remained viable in series [4] was 80%. In series [5], the “log reduction of vegetative cells” value is “more than 6 log”.
For the molecule `O` [BULK WATER, water], in series [1], the “effectiveness of additive (in words)” value was “neither bulk water, nor ethanol, nor isopropanol were effective additives” and the “effectiveness of additive in deactivating B. pumilus spores (in words)” value was “Neither bulk water, 5 μL of 70% ethanol, nor 5 μL of 70% isopropanol resulted in the required log reduction”.
